Read-outs that look alike come from different tables or passages of the source.
Key:
IEC-18 cells = experiment: MTT assay, IEC-18 intestinal epithelial cells; format: cell-based, rat
Protocol: (§1) A MTT [3-(4,5-dimethylthiazolyl-2)-2,5-diphenyltetrazolium bromide] (Sigma, St Louis, Mo.) assay was performed to determine cell proliferation. Briefly, CL1-5, A549, PC-9, H1650, H1975 and IEC-18 cells were plated in 96-well plates at a density of 5×10^3 cells/well. […] MTT solution to a final concentration in the culture medium 0.5 mg/ml was then added to the wells. After a further 1.5 h of incubation, the medium was removed and DMSO was added to the plates.

[1] = test system: active-p38 in IEC-18 cells; experiment: Western blot active-p38, IEC-18; format: cell-based, rat
[2] = test system: CL1-5 lung adenocarcinoma xenograft; experiment: CL1-5 xenograft tumor growth; format: in vivo, SCID mice; details: control 638.55
H1975 cells [3] = details: 15 μM curcumin without gefitinib
H1299 cells = format: cell-based, human
[4] = test system: pAKT, cyclin D1 in H1975 cells; experiment: Western blot EGFR signaling, H1975; format: cell-based, human; details: H1975, curcumin 1-20 μM, EGF 20 ng/ml
[5] = test system: EGFR protein in lung adenocarcinoma cells; experiment: EGFR degradation (Western blot) and ubiquitination (immunoprecipitation); format: cell-based; details: without MG132
[6] = test system: pEGFR, pAKT in H1299 cells; experiment: Western blot EGFR signaling, H1299; format: cell-based, human; details: gefitinib 1 μM alone, curcumin 10 and 15 μM alone, or gefitinib 1 μM + curcumin 15 μM
EGFR mRNA in CL1-5 cells = experiment: Real-time quantitative RT-PCR of EGFR; format: cell-based, human; details: CL1-5, 1-20 μM, 24 h
H1975 cells [7] = format: cell-based, human
Protocol: as §1

A549 cells = format: cell-based, human
Protocol: as §1

H1650 cells = format: cell-based, human
Protocol: as §1

CL1-5 cells = format: cell-based, human
Protocol: as §1

[8] = test system: EGFR, pEGFR, AKT, pAKT in CL1-5 cells; experiment: Western blot EGFR signaling, CL1-5; format: cell-based, human
[9] = test system: EGFR, pEGFR, AKT, pAKT in A549 cells; experiment: Western blot EGFR signaling, A549; format: cell-based, human
[10] = Adverse gastrointestinal effects and survival in xenograft study
[11] = SCID, mouse, in vivo, po, 3 weeks
[12] = test system: active-p38 in CL1-5 cells; experiment: Western blot active-p38, CL1-5; format: cell-based, human; details: CL1-5, gefitinib 0-20 μM

Cc1ccc(-n2nc(C(C)(C)C)cc2NC(=O)Nc2ccc(OCCN3CCOCC3)c3ccccc23)cc1 [BIRB 796, reference compound]
rescue from toxic effect of gefitinib (cell survival) (IEC-18 cells; IEC-18, curcumin 5 μM, BIRB 796 10 nM, gefitinib 30 and 40 μM): rescue the cells from this toxic effect of gefitinib
active-p38 expression on gefitinib-treated cells ([1]; IEC-18, curcumin 5 μM, BIRB 796 10 nM): significantly decrease the active-p38 expression

CCOC(=O)CC/C(C(=O)/C=C/c1ccc(O)c(OC)c1)=C(O)\C=C\c1ccc(O)c(OC)c1 [JC-15]
protection against gefitinib-induced intestinal cell death (FIG. 10) (IEC-18 cells): protective effect to reduce gefitinib-induced intestinal cell death

COc1cc(/C=C/C(=O)C(C(C)=O)C(O)/C=C/c2ccc(O)c(OC)c2)ccc1O (centres unmarked) [LL68]
protection against gefitinib-induced intestinal cell death (FIG. 10) (IEC-18 cells): protective effect to reduce gefitinib-induced intestinal cell death

COc1cc(/C=C/C(O)=C/C(=O)/C=C/c2ccc(O)cc2)ccc1O [LL-18]
protection against gefitinib-induced intestinal cell death (FIG. 10) (IEC-18 cells): protective effect to reduce gefitinib-induced intestinal cell death

COc1cc(/C=C/C(=O)/C=C(O)/C=C/c2ccc(O)c(OC)c2)ccc1O [curcumin, diferuloylmethane]
rescue from toxic effect of gefitinib (cell survival) (IEC-18 cells): rescue the cells from this toxic effect of gefitinib
average tumor size at the end of the study ([2]; curcumin 1 g/kg orally once daily): 354.91 mm^3
cells in apoptosis (H1975 cells [3]): about 90%
cell proliferation (FIG. 4A) (H1299 cells): slight inhibition of cell proliferation
proliferation (FIG. 1A right) (H1299 cells; H1299, curcumin alone): inhibited by curcumin in a concentration-dependent manner
AKT phosphorylation [4]: not altered
level of cyclin D1 [4]: significantly reduced
EGFR protein expression [5]: inhibit the EGFR protein expression in a dose-dependent manner
pEGFR and pAKT (FIG. 4B) [6]: minimal suppressive effect
EGFR mRNA expression (EGFR mRNA in CL1-5 cells): reduce EGFR mRNA expression in a concentration-dependent manner
cell proliferation (FIG. 4A) (H1975 cells [7]): slight inhibition of cell proliferation
proliferation (FIG. 1A right) (H1975 cells [7]; H1975, curcumin alone): inhibited by curcumin in a concentration-dependent manner
cell proliferation (FIG. 4A) (A549 cells): slight inhibition of cell proliferation
proliferation (FIG. 1A right) (A549 cells; A549, curcumin alone): inhibited by curcumin in a concentration-dependent manner
cell proliferation (FIG. 4A) (H1650 cells): slight inhibition of cell proliferation
proliferation (FIG. 1A right) (H1650 cells; H1650, curcumin alone): inhibited by curcumin in a concentration-dependent manner
cell proliferation (FIG. 4A) (CL1-5 cells): slight inhibition of cell proliferation
proliferation (FIG. 1A right) (CL1-5 cells; CL1-5, curcumin alone): inhibited by curcumin in a concentration-dependent manner
EGFR, pEGFR, AKT, and pAKT protein expression ([8]; CL1-5, curcumin 1-20 μM, EGF 20 ng/ml): reduce EGFR, pEGFR, AKT, and pAKT protein expression
pEGFR and pAKT (FIG. 4B) ([8]; CL1-5, gefitinib 1 μM alone, curcumin 10 and 15 μM alone, or gefitinib 1 μM + curcumin 15 μM): minimal suppressive effect
EGFR, pEGFR, AKT, and pAKT protein expression ([9]; A549, curcumin 1-20 μM, EGF 20 ng/ml): reduce EGFR, pEGFR, AKT, and pAKT protein expression
pEGFR and pAKT (FIG. 4B) ([9]; A549, gefitinib 1 μM alone, curcumin 10 and 15 μM alone, or gefitinib 1 μM + curcumin 15 μM): minimal suppressive effect
morphology / full length of the intestine [10]: no obvious differences
levels of EGFR and AKT in the tumors (CL1-5 tumor tissue; Western blot of tumor tissue): decreased
PCNA marker in tumor tissue (CL1-5 tumor tissue; immunohistochemical staining): decreased
cell apoptosis in tumor tissue (TUNEL) (CL1-5 tumor tissue; in situ cell death detection, vs control (and gefitinib only)): induced cell apoptosis

COc1cc2ncnc(Nc3ccc(F)c(Cl)c3)c2cc1OCCCN1CCOCC1 [gefitinib, N-(3-Chloro-4-fluoro-phenyl)-7-methoxy-6-(3-morpholin-4-ylpropoxy)quinazolin-4-amine]
IC25 for IEC-18 cell (IEC-18 cells; IEC-18): 30 µM
IEC-18 cell survival (IEC-18 cells; gefitinib 30 and 40 μM, 24 h): significantly reduce IEC-18 cell survival
average tumor size at the end of the study ([2]; gefitinib 120 mg/kg orally once daily): 138.32 mm^3
survival rate [11]: 33%
p38 activation [12]: did not elevate the p38 activation
active-p38 ([1]; IEC-18, gefitinib 0-20 μM): significant increased in a dose dependent manner
cell proliferation (FIG. 4A) (A549 cells): slight inhibition of cell proliferation
body weight [10]: dramatic body weight lost
diarrhea [10]: obviously diarrhea side effect
morphology / full length of the intestine [10]: shorter and thinner

From patent US20110224205A1 (NATIONAL TAIWAN UNIVERSITY, priority 2010, published 2011)
